Reference: patent US20260176262A1, “KRAS INHIBITORS, PREPARATION METHOD THEREFOR, AND PHARMACEUTICAL USE THEREOF” (ABBISKO THERAPEUTICS CO., LTD., priority 2021, published 2026)
pIC50: −log10 of the molar value. Like-named read-outs stand apart in the source and are kept apart here.

Legend:
[1] = Pharmacokinetic experiment in mice; settings: male, ICR, mouse, plasma
Protocol: ICR mice male N=3 original source: Shanghai Sippr-Bk Lab Animal Co., Ltd.
Single oral (PO) administration in ICR mice: The compounds were weighed and added to the solvent of 0.5% CMC+1% Tween 80 respectively, well shaken, and ultrasonicated to get a light yellow suspension. 3 mice were administered orally after fasting overnight. The dose was 10 mg/kg.
About 90 μL/timepoint blood was collected through the orbital cavity, anticoagulated with sodium heparin, placed on ice after collection, and centrifuged to separate the plasma within 1 hour (centrifugation conditions: 8000 rpm, 6 m 2-8C). The blood collection timepoints were 0, 0.25, 0.5, 1, 2, 4, 6, 8 and 24 h. The samples were stored in a −20° C. refrigerator.
The plasma sample was 40 μL, 160 μL of ice-cold acetonitrile containing internal standard was added, vortexed for 1 minute, and centrifuged at 18,000 rpm for 10 minutes. The supernatant was transferred to a 96-well plate, and 5 μL was injected into LC-MS/MS for analysis.

KRAS^G12D/cRAF = KRAS^G12D/cRAF (Homo sapiens, UniProt P01116, G12D); test: KRAS G12D/cRAF binding test (Alphalisa); settings: His-tagged KRAS G12D + GMPPNP, GST-tagged cRAF
Chain of KRAS^G12D/cRAF (P01116 1-188 isoform P01116-2 G12D): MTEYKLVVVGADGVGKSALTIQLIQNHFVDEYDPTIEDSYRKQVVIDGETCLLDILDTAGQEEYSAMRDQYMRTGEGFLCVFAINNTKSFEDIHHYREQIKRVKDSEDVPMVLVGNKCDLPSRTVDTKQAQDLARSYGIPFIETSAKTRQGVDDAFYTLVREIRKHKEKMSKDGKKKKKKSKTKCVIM
Protocol: The compound was dissolved in 100% DMSO at a starting concentration of 5 mM and diluted in DMSO with a 3-fold serial dilution method for a total of 8 concentration points. 1 μL of the compound or DMSO at each concentration point was added into 99 μL of the experimental buffer to obtain 10× stock solution.
• 1) 4 μL of the working mixture solution of His-tagged KRAS^G12D and GMPPNP was added to the 384-well plate. • 2) The 10× compound stock solution or 1% DMSO was added to the 384-well plate. • 3) The plate was centrifuged at 1000 rpm for 1 minute. • 4) 4 μL of GST-tagged cRAF solution was added to the 384-well plate. • 5) The plate was centrifuged at 1000 rpm for 1 minute. • 6) The plate was incubated at room temperature for 15 minutes. • 7) 10 μL of detection working solution was added to the 384-well plate. • 8) The plate was centrifuged at 1000 rpm for 1 minute. • 9) The plate was incubated at room temperature for 60 minutes. • 10) The 384-well plate was placed into Envision and assay data was obtained.
(§1) The ratio for each compound concentration was calculated from the signal of the DMSO control group contained in each assay plate and the Alphalisa signal in each compound well. The compound concentration required for inhibitory concentration at 50% (IC50) was determined using a four-parameter logarithmic dose-response equation by testing the concentration of the compound and the value of the ratio. The endpoint value (IC50) of the reference compound was assessed in each experiment as a quality control measure. If the endpoint value is within three times the expected value, the experiment may be considered acceptable.

AGS cell = test: Anti-proliferative 2D CTG assay, AGS cells; type: cell-based; settings: Homo sapiens, 72 h; for pIC50: AGS cells, incubated 3 days, CTG, read-out: AGS cell IC50
Protocol: When the cell confluence was about 80%, the cells were isolated with 0.25% trypsin. Isolated cells were resuspended in 5 mL fresh cell culture medium and centrifuged for cell collection. Meanwhile, the number of cells was also calculated. The cells were then suspended in culture medium of medium concentration. The cells were placed into a 96-well plate with 1000 cells/well for AGS and 1000 cells/well for GP2D. The 96-well plate was placed in an incubator at 37° C. and incubated overnight.
1.2 Day 1 Compound Treatment From the 10 mM stock solution, with a ratio of 1:5, 10-point serial dilutions were performed. The 10× medium containing the compound was transferred into corresponding wells of the 96 wells. The final maximum compound concentration was […] and the final DMSO concentration was 0.1%. The 96-well plate was placed in a 37° C. incubator, the AGS cells were incubated for 3 days, and the GP2D cells were incubated for 4 days.
50 μL/well of detection reagent (CTG) was added to the AGS cells, and the signal was read in an Envision machine.
as §1, with “The percent inhibition (%) at” for “The ratio for”, “signal in” for “signal of”, “the HPE and ZPE” for “the DMSO”, “control wells and the fluorescence signal in the individual compound wells included” for “control group contained”, “assay plate. […]” for “assay plate and the Alphalisa signal in each compound well.”, “the inhibition percentage value.” for “the value of the ratio.”

Structure (SMILES) | pIC50 (KRAS^G12D/cRAF; class symbols) | pIC50 (AGS cell; class symbols) | also measured
C#Cc1c(F)ccc2cc(O)cc(-c3ncc4c(N5CC6CCC(C5)N6)nc(OC[C@@]56CCCN5C[C@H](F)C6)nc4c3F)c12 [Positive Compounds, reference compound] |  |  | AUC(0-t) ([1]; iv, 2 mg/kg): 337 ng·h/mL; half-life ([1]; iv, 2 mg/kg): 3.1 h; AUC(0-t) ([1]; po, 10 mg/kg): 40 ng·h/mL; bioavailability ([1]; po, 10 mg/kg): 2.4%; half-life ([1]; po, 10 mg/kg): 1.6 h
[2H]C([2H])([2H])OCC12CCC(C)(CN(c3nc(OC[C@@]45CCCN4C[C@H](F)C5)nc4c(F)c(-c5cc(O)cc6ccc(F)c(C#C)c56)ncc34)C1)N2 (stereo partly drawn) [Example 18, 5-ethynyl-6-fluoro-4-(8-fluoro-2-(((2R,7aS)-2-fluorotetrahydro-1H-pyrrolizin-7a(5H)-yl)methoxy)-4-(1-((methoxy-d3)methyl)-5-methyl-3,8-diazabicyclo [3.2.1]octan-3-yl)pyrido[4,3-d]pyrimidin-7-yl)naphthalen-2-ol] | 6.30 to 7.30 | 6.30 to 7.30 | 
C#Cc1c(F)ccc2cc(O)cc(-c3ncc4c(N5CC6CCC(COC)(C5)N6)nc(OC[C@@]56CCCN5C[C@H](F)C6)nc4c3F)c12 (stereo partly drawn) [Example 1, 5-ethynyl-6-fluoro-4-(8-fluoro-2-(((2R,7aS)-2-fluorotetrahydro-1H-pyrrolizin-7a-yl)methoxy)-4-(1-(methoxymethyl)-3,8-diazabicyclo[3.2.1]octan-3-yl)pyrido[4,3-d]pyrimidin-7-yl)naphthalen-2-ol] |  |  | pIC50 (KRAS^G12D/cRAF; numeric values): 7.00; IC50 (AGS cell; AGS, read-out: AGS cell IC50 (nM)): 20 nM
C#Cc1c(F)ccc2cc(O)cc(-c3ncc4c(N5CC6CCC(CN(C)C(C)=O)(C5)N6)nc(OC[C@@]56CCCN5C[C@H](F)C6)nc4c3F)c12 (stereo partly drawn) [Example 25, N-((3-(7-(8-ethynyl-7-fluoro-3-hydroxynaphthalen-1-yl)-8-fluoro-2-(((2R,7aS)-2-fluorotetrahydro-1H-pyrrolizin-7a(5H)-yl)methoxy)pyrido[4,3-d]pyrimidin-4-yl)-3,8-diazabicyclo[3.2.1]octan-1-yl)methyl)-N-methylacetamide] | 6.30 to 7.30 | < 6.30 | 
C#Cc1c(F)ccc2cc(O)cc(-c3ncc4c(N5CC6CCC(/C=C\F)(C5)N6)nc(OC[C@@]56CCCN5C[C@H](F)C6)nc4c3F)c12 (stereo partly drawn) [Example 27, 5-ethynyl-6-fluoro-4-(8-fluoro-2-(((2R,7aS)-2-fluorotetrahydro-1H-pyrrolizin-7a(5H)-yl)methoxy)-4-(1-((Z)-2-fluorovinyl)-3,8-diazabicyclo[3.2.1]octan-3-yl)pyrido[4,3-d]pyrimidin-7-yl) naphthalen-2-ol] |  |  | pIC50 (KRAS^G12D/cRAF; numeric values): 7.27; pIC50 (AGS cell; numeric values): 7.96
[2H]C([2H])([2H])OC[C@]12CC[C@H](CN(c3nc(OC[C@@]45CCCN4C[C@H](F)C5)nc4c(F)c(-c5cc(O)cc6ccc(F)c(C#C)c56)nc(OCC)c34)C1)N2 [Example 37, 4-(5-ethoxy-8-fluoro-2-(((2R, 7aS)-2-fluorotetrahydro-1H-pyrrolizin-7a(5H)-yl)methoxy)-4-((1S,5R)-1-((methoxy-d3)methyl)-3,8-diazabicyclo [3.2.1]octan-3-yl)pyrido [4,3-d]pyrimidin-7-yl)-5-ethynyl-6-fluoronaphthalen-2-ol] | 6.30 to 7.30 | > 7.30 | 
[2H]C([2H])([2H])C12CCC(CN(c3nc(OC[C@@]45CCCN4C[C@H](F)C5)nc4c(F)c(-c5cc(O)cc6ccc(F)c(C#C)c56)nc(C)c34)C1)N2 (stereo partly drawn) [Example 40, 5-ethynyl-6-fluoro-4-(8-fluoro-2-(((2R,7aS)-2-fluorotetrahydro-1H-pyrrolizin-7a(5H)-yl)methoxy)-5-methyl-4-(1-(methyl-d3)-3,8-diazabicyclo[3.2.1]octan-3-yl)pyrido[4,3-d]pyrimidin-7-yl)naphthalen-2-ol] | > 7.30 | > 7.30 | 
C#Cc1c(F)ccc2cc(O)cc(-c3ncc4c(N5CC6CCC(C(=O)OC)(C5)N6)nc(OC[C@@]56CCCN5C[C@H](F)C6)nc4c3F)c12 (stereo partly drawn) [Example 23, methyl 3-(7-(8-ethynyl-7-fluoro-3-hydroxynaphthalen-1-yl)-8-fluoro-2-(((2R,7aS)-2-fluorotetrahydro-1H-pyrrolizin-7a(5H)-yl)methoxy)pyrido[4,3-d]pyrimidin-4-yl)-3,8-diazabicyclo[3.2.1] octan-1-carboxylate] | 6.30 to 7.30 | 6.30 to 7.30 | 
C#Cc1c(F)ccc2cc(O)cc(-c3ncc4c(N5C[C@H]6CC[C@@](CC)(C5)N6)nc(OC[C@@]56CCCN5C[C@H](F)C6)nc4c3F)c12 [Example 53, 4-(4-((1S,5R)-1-ethyl-3,8-diazabicyclo[3.2.1]octan-3-yl)-8-fluoro-2-(((2R,7aS)-2-fluorotetrahydro-1H-pyrrolizin-7a(5H)-yl)methoxy)pyrido[4,3-d]pyrimidin-7-yl)-5-eth ynyl-6-fluoronaphthalen-2-ol] |  |  | pIC50 (KRAS^G12D/cRAF; numeric values): 6.66; pIC50 (AGS cell; numeric values): 6.15
C#Cc1c(F)ccc2cc(O)cc(-c3ncc4c(N5CC6CCC(CC(F)F)(C5)N6)nc(OC[C@@]56CCCN5C[C@H](F)C6)nc4c3F)c12 (stereo partly drawn) [Example 21, 4-(4-(1-(2,2-difluoroethyl)-3,8-diazabicyclo[3.2.1]octan-3-yl)-8-fluoro-2-(((2R,7aS)-2-fluorotetrahydro-1H-pyrrolizin-7a(5H)-yl)methoxy)pyrido[4,3-d]pyrimidin-7-yl)-5-ethynyl-6-fluoronaphthalen-2-ol] | 6.30 to 7.30 | > 7.30 | 
[2H]C([2H])([2H])OCC12CCC(CN(c3nc(OC[C@@]45CCCN4C[C@H](F)C5)nc4c(F)c(-c5cc(O)cc6cc(F)c(F)c(C#C)c56)ncc34)C1)N2 (stereo partly drawn) [Example 15, 5-ethynyl-6,7-difluoro-4-(8-fluoro-2-(((2R,7aS)-2-fluorotetrahydro-1H-pyrrolizin-7a(5H)-yl)methoxy)-4-(1-((methoxy-d3)methyl)-3,8-diazabicyclo[3.2.1]octan-3-yl)pyrido[4,3-d]pyrimidin-7-yl)naphthalen-2-ol] | 6.30 to 7.30 | 6.30 to 7.30 | 
C#Cc1c(F)ccc2cc(O)cc(-c3ncc4c(N5CC6CCC(CC(=O)OC)(C5)N6)nc(OC[C@@]56CCCN5C[C@H](F)C6)nc4c3F)c12 (stereo partly drawn) [Example 34, Methyl 2-(3-(7-(8-ethynyl-7-fluoro-3-hydroxynaphthalen-1-yl)-8-fluoro-2-(((2R,7aS)-2-fluorohexahydro-1H-pyrrolizin-7a-yl)methoxy)pyrido[4,3-d]pyrimidin-4-yl)-3,8-diazabicyclo[3.2.1]octan-1-yl)acetate] | > 7.30 | 6.30 to 7.30 | 
C#Cc1c(F)ccc2cc(O)cc(-c3ncc4c(N5C[C@@H]6CC[C@](/C=C\F)(C5)N6)nc(OC[C@@]56CCCN5C[C@H](F)C6)nc4c3F)c12 [Example 60, 5-ethynyl-6-fluoro-4-(8-fluoro-2-(((2R,7aS)-2-fluorotetrahydro-1H-pyrrolizin-7a(5H)-yl)methoxy)-4-((1S,5S)-1-((Z)-2-fluorovinyl)-3,8-diazabicyclo[3.2.1]octan-3-yl)pyrido[4,3-d]pyrimidin-7-yl)naphthalen-2-ol] |  |  | pIC50 (KRAS^G12D/cRAF; numeric values): 7.60; pIC50 (AGS cell; numeric values): 7.10
[2H]C([2H])([2H])OCC12CCC(CN(c3nc(OC[C@@]45CCCN4C[C@H](F)C5)nc4c(F)c(-c5cc(O)cc6cc(Cl)c(F)c(C#C)c56)ncc34)C1)N2 (stereo partly drawn) [Example 16, 7-chloro-5-ethynyl-6-fluoro-4-(8-fluoro-2-(((2R,7aS)-2-fluorotetrahydro-1H-pyrrolizin-7a(5H)-yl)methoxy)-4-(1-((methoxy-d3)methyl)-3,8-diazabicyclo [3.2.1]octan-3-yl)pyrido[4,3-d]pyrimidin-7-yl)naphthalen-2-ol] | < 6.30 | 6.30 to 7.30 | 
